From patent publication US10945972B2, “Particulate materials” (Nektar Therapeutics, priority 2002, dated 2021)
Like-named read-outs stand apart in the source and are kept apart here. Values belong to the compound of their own block, whether it stands above or below them.

What was measured:
[1] = BET nitrogen adsorption specific surface area (Example 2); format: physicochemical
Description: Data on specific surface areas required for IGC studies were determined by BET nitrogen adsorption using a Surface Area Analyzer Coulter SA 3100 (Coulter Corp., Miami, Fla., USA). Samples were placed in glass sample holders and out-gassed with helium (purity >99.999%) at 40° C. for 16 hours before analysis. Nitrogen (purity >99.999%) was used as adsorbate and BET surface area was recorded as specific surface area of the samples. All measurements were performed in triplicate using the same batch of each material.

[2] = Inverse gas chromatography of SX powders (Example 2); settings: for KA: acidity parameter; for γs^D (mJ/m^2): column at 40° C.; for −ΔGA^SP (kJ/mol) Acetone: probe acetone; for −ΔGA^SP (kJ/mol) Chloroform: probe chloroform; for −ΔGA^SP (kJ/mol) Diethyl ether: probe diethyl ether; for −ΔGA^SP (kJ/mol) Ethyl acetate: probe ethyl acetate; for −ΔGA^SP (kJ/mol) Tetrahydrofuran: probe tetrahydrofuran
[3] = Particle size by AeroSizer time-of-flight (Example 1); format: physicochemical; settings: aerodynamic-equivalent volume mean diameter
Description: (§1) PSD measurements were performed using firstly, AEROSIZER® time-of-flight instrument equipped with AERO-[…]® (TSI Inc., Minneapolis. USA) and secondly, laser diffraction sensor Helos with dry-powder air-dispersion system Rodos (Sympatec GmbH. Germany). The volume mean particle diameter, VMD, was obtained for both instruments using software options. In the general case of non-spherical particles, these instruments cannot provide the exact value of VMD, however, the time-of-flight technique gives an aerodynamic-equivalent particle diameter, whereas the laser diffraction method provides the geometric projection-equivalent diameter. These diameters afford the complementary information on PSD and therefore can be used for comparative size analysis.

[4] = Particle size by Helos/Rodos laser diffraction (Example 1); format: physicochemical; settings: geometric projection-equivalent volume mean diameter
Description: as §1

[5] = Inverse gas chromatography surface energy (Example 1); format: physicochemical; settings: 303K; for ΔGA (kJ/mol) Diethyl ether: probe diethyl ether
Source text: For TBS and FHBr powders, IGC was done using a Hewlett Packard Series 6890 instrument which was specifically modified for IGC measurements by Surface Measurement Systems Ltd (Manchester, UK). The IGC method is described in detail by Tong et al. 2001. (Tong H. H. Y., B. Y. Shekunov, P. York, A. H. L. Chow, 2001. Pharm. Res. 18, 852.) Triplicate measurements in separate packed columns were made. […] The γS^D and ΔGA values were obtained at 303K.

[6] = Laser diffraction particle size analysis HELOS/RODOS (Example 2); format: physicochemical; settings: for mean particle size d4,3: LD technique
Description: The instrument consisted of laser diffraction sensor HELOS and dry-powder air-dispersion system RODOS (Sympatec GmbH. Germany) with WINDOX OS computer interface. The dispersion process was controlled by means of adjusting pressure of the compressed air flow between 0.5 and 5 bar. […] All measurements were performed in triplicate. The particle shape factor, f, was calculated as f=Sv/Sv*. where Sv is the experimental specific surface area and Sv* is the specific surface area determined using the LD instrument assuming the particle sphericity.

[7] = Triboelectrification in turbula mixer, charge and adhesion; format: physicochemical; settings: for Q (nCg^−1) After mixing: 5 minutes at 30 rpm
Description: (§2) Triboelectrification was undertaken against a stainless steel contact surface using either a turbula mixer or a cyclone separator. Triboelectrification in a turbula mixer (Glen Creston, UK) was carried out by agitating a powder sample for 5 minutes at 30 rpm in a 100 ml stainless steel vessel at ambient temperature and relative humidity. A sample was poured in a reproducible manner into a Faraday well connected to an electrometer (Keithley 610, Keithley Instruments, Reading, UK). Charge and mass of sample was then recorded to give specific charge before and after triboelectrification. % w/w adhesion to the inner surface of the mixing vessel was calculated from the original mass of sample and the mass of sample poured into the Faraday well. During triboelectrification in a cyclone separator, a powder was fed from a steel vibratory table into a venturi funnel. Compressed air (velocity 8 m/s. relative humidity below 10%, ambient temperature) was used to convey the powder from the venturi along a horizontal pipe into the cyclone separator. The Faraday well and force compensation load cell was fitted at the base of the cyclone and used to collect charged particles. Final specific charge was recorded for non-adhered powder residing in the Faraday well and, where possible, powder adhering to the cyclone wall was dislodged by a stream of air and its charge and mass recorded. In both cases, the results were obtained from triplicate measurements.

[8] = Triboelectrification in cyclone separator, charge and adhesion; format: physicochemical
Description: as §2

[9] = Bulk powder density (Example 2); format: physicochemical

SV (specific surface area) [1]: 10.699
KA [2]: 0.233
γs^D (mJ/m^2) [2]: 36.972 mJ/m^2
−ΔGA^SP (kJ/mol) Acetone [2]: 5.454 kJ/mol
−ΔGA^SP (kJ/mol) Chloroform [2]: 1.885 kJ/mol
−ΔGA^SP (kJ/mol) Diethyl ether [2]: 2.958 kJ/mol
−ΔGA^SP (kJ/mol) Ethyl acetate [2]: 4.739 kJ/mol
−ΔGA^SP (kJ/mol) Tetrahydrofuran [2]: 4.854 kJ/mol
Compound: OCc1cc(C(O)CNCCCCCCOCCCCc2ccccc2)ccc1O (stereo not shown) [G-SX, Salmeterol xinafoate]

VMD (μm) (Time of flight) [3]: 1.2 μm
VMD (μm) (laser diffraction) [4]: 1.69 μm
γs^D (mJ/m^2) [5]: 40.49 mJ/m^2
ΔGA (kJ/mol) Acetone ([5]; probe acetone): 15.24 kJ/mol
ΔGA (kJ/mol) Chloroform ([5]; probe chloroform): 14.78 kJ/mol
ΔGA (kJ/mol) Diethyl ether [5]: 14.20 kJ/mol
ΔGA (kJ/mol) Ethyl acetate ([5]; probe ethyl acetate): 17.46 kJ/mol
SV (specific surface area) ([1]; listed as M-SX): 9.243
mean particle size d4,3 ([6]; listed as M-SX): 1.8 μm
f (particle shape factor, f=Sv/Sv*) ([6]; listed as M-SX): 2.80
Q (nCg^−1) After mixing ([7]; listed as M-SX): −42.6 nCg^−1
AD (% w/w), fraction of adhered material ([7]; listed as M-SX): 27 % w/w
Q (nCg^−1) Before mixing ([7]; listed as M-SX): −12.1 nCg^−1
AD (% w/w), fraction of adhered material ([8]; listed as M-SX): 16.7 % w/w
Q (nCg^−1) After mixing ([8]; listed as M-SX): −49.7 nCg^−1
Q (nCg^−1) Before mixing ([8]; listed as M-SX): −48.4 nCg^−1
bulk powder density ([9]; listed as M-SX): 0.5 g/mL
KA ([2]; listed as M-SX): 0.172
γs^D (mJ/m^2) ([2]; listed as M-SX): 38.285 mJ/m^2
−ΔGA^SP (kJ/mol) Acetone ([2]; listed as M-SX): 4.560 kJ/mol
−ΔGA^SP (kJ/mol) Chloroform ([2]; listed as M-SX): 0.810 kJ/mol
−ΔGA^SP (kJ/mol) Diethyl ether ([2]; listed as M-SX): 2.774 kJ/mol
−ΔGA^SP (kJ/mol) Ethyl acetate ([2]; listed as M-SX): 3.995 kJ/mol
−ΔGA^SP (kJ/mol) Tetrahydrofuran ([2]; listed as M-SX): 3.609 kJ/mol
Compound: OCc1cc(C(O)CNCCCCCCOCCCCc2ccccc2)ccc1O (stereo not shown) [SX Micronised, salmeterol xinafoate, reference compound]

VMD (μm) (Time of flight) [3]: 1.6 μm
VMD (μm) (laser diffraction) [4]: 3.56 μm
γs^D (mJ/m^2) [5]: 34.55 mJ/m^2
ΔGA (kJ/mol) Diethyl ether [5]: 12.65 kJ/mol
SV (specific surface area) ([1]; listed as S-SX): 7.040
mean particle size d4,3 ([6]; listed as S-SX): 3.5 μm
f (particle shape factor, f=Sv/Sv*) ([6]; listed as S-SX): 3.78
Q (nCg^−1) After mixing ([7]; listed as S-SX): −0.17 nCg^−1
AD (% w/w), fraction of adhered material ([7]; listed as S-SX): 1.5 % w/w
Q (nCg^−1) Before mixing ([7]; listed as S-SX): −0.52 nCg^−1
AD (% w/w), fraction of adhered material ([8]; listed as S-SX): 5.5 % w/w
Q (nCg^−1) After mixing ([8]; listed as S-SX): −34.6 nCg^−1
Q (nCg^−1) Before mixing ([8]; listed as S-SX): 4.9 nCg^−1
bulk powder density ([9]; listed as S-SX): about 0.1 g/cm^3
magnitude of γS^D smaller than for M-SX and G-SX [2]: 15%
KA ([2]; listed as S-SX): 0.110
γs^D (mJ/m^2) ([2]; listed as S-SX): 32.476 mJ/m^2
−ΔGA^SP (kJ/mol) Acetone ([2]; listed as S-SX): 3.797 kJ/mol
−ΔGA^SP (kJ/mol) Chloroform ([2]; listed as S-SX): 0.153 kJ/mol
−ΔGA^SP (kJ/mol) Dichloromethane ([2]; probe dichloromethane): 2.808 kJ/mol
−ΔGA^SP (kJ/mol) Diethyl ether ([2]; listed as S-SX): 1.488 kJ/mol
−ΔGA^SP (kJ/mol) Ethyl acetate ([2]; listed as S-SX): 2.705 kJ/mol
−ΔGA^SP (kJ/mol) Tetrahydrofuran ([2]; listed as S-SX): 2.446 kJ/mol
Compound: OCc1cc(C(O)CNCCCCCCOCCCCc2ccccc2)ccc1O (stereo not shown) [SX SEDS, salmeterol xinafoate]
